Experimental data reported in patent US9708397B2, “Treatment of vasculoproliferative conditions with Lrg1 antagonists” (UCL Business PLC, priority 2010, dated 2017).

Tested on: Lrg1/TGFβ1 induced Smad5 phosphorylation
Experiment: TGFβ-induced Smad5 phosphorylation in Lrg1 over-expressing GPNT endothelial cells
Type: cell-based, rat
Conditions: 5 ng/ml TGFβ, co-treatment
Excerpt: We next established whether we could block endothelial Smad5 phosphorylation induced by TGFβ with either an anti-Lrg1 antibody or by peptide sequences derived from Lrg1. Peptides derived from the leucine-rich repeat regions of the Lrg1 sequence (L1-24 and L169-192 of Appendix 2 (SEQ ID NOS:3-4) or L94-117 and L262-285 of Appendix 3 (SEQ ID NOS:3-4)), which are believed to be involved in protein-protein interactions, and from the highly conserved leucine-rich C-terminal domain (L227-252 of Appendix 2 (SEQ ID NO:5) or L320-345 of Appendix 3 (SEQ ID NO:5)) were generated (Appendix 2). […] Treatment of control cells with 5 ng/ml TGFβ results in a significant increase in Smad5 phosphorylation.

Row | Sequence | effect on Smad5 phosphorylation | effect on Smad5 phosphorylation (listed as Lrg1 blocking peptide derived from the C-terminus)
1 | KMFSQNDTRCAGPEAVKGQTLLAVAK (listed as Homo sapiens) [L227-252] | dramatic inhibitory effect | inhibits
2 | LDMLDLSNNSLASVPEGLWASLGQ (listed as Homo sapiens) [L169-192, Peptide from a leucine-rich repeat region of human Lrg1] | partial effect | 
3 | LQELHLSSNGLESLSPEFLRPVPQ (listed as Homo sapiens) [L1-24, Peptide from a leucine-rich repeat region of human Lrg1] | no effect | 
